Source: ChEMBL document CHEMBL5674860, “Optimized Dual-Glo Assay to identify co-culture-induced drug vulnerabilities in 3D CRC models” (2024)

Columns and labels:
Format in all cases: functional, Homo sapiens
Set-up in all cases: dose or concentration left out as unconfirmed
[1] = system: Colon cancer organoid; experiment: Optimized Dual-Glo assay to identify co-culture induced drug vulnerabilities using donated chemical probes and chemogenomics kinase set in O06 CRC organoid and F06 CAF mono and co-culture. […] Cell viability is reported both mono and co-culture models.
[2] = system: Colon cancer organoid; experiment: Optimized Dual-Glo assay to identify co-culture induced drug vulnerabilities using donated chemical probes and chemogenomics kinase set in O14 CRC organoid and F14 CAF mono and co-culture. […] Cell viability is reported both mono and co-culture models.
[3] = system: Colon cancer organoid; experiment: Optimized Dual-Glo assay to identify co-culture induced drug vulnerabilities using donated chemical probes and chemogenomics kinase set in O20 CRC organoid and F20 CAF mono and co-culture. […] Cell viability is reported both mono and co-culture models.
[4] = Culture type Co-Culture, Transduced with Lucferase2-P2A-EGFP lentivirus
[5] = Culture type Co-Culture, Transduced with Renilla-dsRed lentivirus
[6] = Culture type Mono-Culture, Transduced with Lucferase2-P2A-EGFP lentivirus
[7] = Culture type Mono-Culture, Transduced with Renilla-dsRed lentivirus

| SMILES | Cell Viability [1, 4] | Cell Viability [1, 5] | Cell Viability [1, 6] | Cell Viability [1, 7] | Cell Viability [2, 4] | Cell Viability [2, 5] | Cell Viability [2, 6] | Cell Viability [2, 7] | Cell Viability [3, 4] | Cell Viability [3, 5] | Cell Viability [3, 6] | Cell Viability [3, 7] |
| --- | --- | --- | --- | --- | --- | --- | --- | --- | --- | --- | --- | --- |
| Cc1ncsc1-c1ccc(CNC(=O)[C@@H]2C[C@@H](O)CN2C(=O)[C@@H](NC(=O)CCCCNC(=O)c2ccc(-c3ccc(N4CCN(C)CC4)c(NC(=O)c4c[nH]c(=O)cc4C(F)(F)F)c3)cc2)C(C)(C)C)cc1 | 81.8894% | 85.2238% | 101.813% | 95.3362% | 94.9121% | 103.946% | 89.8204% | 93.3904% | 171.817% | 86.697% | 106.449% | 104.541% |
| CC1CCN(c2ccnc(NCc3cn(C)cn3)n2)CC1 [TP-040] | 72.882% | 83.2209% | 105.865% | 110.509% | 87.8979% | 100.433% | 106.891% | 94.952% | 75.5826% | 95.0735% | 105.645% | 103.982% |
| Cc1nccc(COC(=O)N2C[C@@H]3[C@@H](CNC(=O)c4ccc5[nH]nnc5c4)[C@@H]3C2)n1 [BI 3017] | 136.883% | 128.292% | 95.2629% | 74.0867% | 93.935% | 119.587% | 137.729% | 94.2589% | 107.028% | 99.2728% | 143.356% | 100.924% |
| CCc1cccc(CC)c1NC(=O)c1nn(C)c2c1CCc1cnc(Nc3ccc(C(=O)NC4CCN(C)CC4)cc3OC(F)(F)F)nc1-2 | 8.756% | 150.393% | 5.577% | 91.0019% | 20.0347% | 229.301% | 20.3776% | 93.7404% | 94.4005% | 107.437% | 25.0865% | 90.076% |
| COc1cccc2c1c(O)c(C(=O)N(C)c1ccc(C(F)(F)F)cc1)c(=O)n2C [TASQUINIMOD] | 78.5663% | 130.265% | 63.1287% | 110.699% | 94.583% | 144.919% | 82.4794% | 97.8059% | 63.9822% | 99.9703% | 87.5673% | 108.719% |
| CC(=O)c1cc(-c2ccccc2OCC2CC2)c2ncccn12 | 107.249% | 181.775% | 93.2808% | 95.3402% | 80.3991% | 93.1948% | 108.194% | 100.736% | 90.8424% | 121.201% | 99.1369% | 90.8457% |
| Cc1cc(C)cc(C(=O)NOCCCCCC(=O)NO)c1 | 13.8956% | 454.718% | 14.9602% | 431.4% | 50.8168% | 381.601% | 48.3088% | 262.893% | 15.3163% | 402.959% | 16.4949% | 194.272% |
| CNc1nc(-c2ccc3c(N)n[nH]c3c2)cc(N2C[C@@H](C(=O)NC3CCCCC3)CC[C@H]2C)n1 | 59.8926% | 53.4401% | 68.2825% | 54.6916% | 75.802% | 81.9858% | 103.482% | 52.6977% | 51.6899% | 121.574% | 29.0897% | 81.2947% |
| CCC(=O)N[C@H]1CC[C@@H](C(=O)N(C)c2ccc(-c3nc4ccccc4o3)cc2)C1 [BI 99179] | 7.905% | 448.988% | 13.2074% | 86.3048% | 36.4327% | 197.223% | 76.5692% | 108.528% | 33.9891% | 149.12% | 57.7768% | 75.3735% |
| CN1C[C@H](Nc2cnn(C)c(=O)c2Br)C[C@H](c2ccccc2)C1 | 52.3497% | 181.327% | 101.698% | 109.538% | 72.8555% | 143.992% | 98.7271% | 111.977% | 159.897% | 106.068% | 104.311% | 120.493% |
| O=c1nc(-c2ccccn2)sc2ccccc12 [BTZO-1] | 150.72% | 152.299% | 108.701% | 93.9423% | 72.8422% | 97.4125% | 100.899% | 88.8475% | 113.092% | 104.485% | 93.617% | 87.2617% |
| COc1cccc(CNC(=O)c2nc3scc(CN(C)Cc4ccccc4)c3c(=O)[nH]2)c1 [T-26f] | 114.676% | 151.389% | 102.721% | 101.465% | 86.5179% | 95.8142% | 82.3734% | 95.7877% | 156.545% | 109.586% | 116.769% | 103.534% |
| C=CC(=O)Nc1ccc2[nH]c(=O)n(C3CCN(Cc4ccc(-c5ccc6c(c5)NC(=O)CO6)cc4)CC3)c2c1 [RL2578] | 88.4189% | 104.707% | 87.6184% | 83.8435% | 109.086% | 76.9187% | 101.444% | 81.1144% | 101.172% | 98.7435% | 76.3776% | 83.481% |
| CCCCNc1ncc(-c2ccc(CN3CCOCC3)cn2)c(N[C@H]2CC[C@H](O)CC2)n1 | 22.8495% | 123.664% | 12.6023% | 77.4775% | 23.305% | 148.151% | 59.2421% | 71.142% | 8.774% | 223.767% | 10.8517% | 82.0591% |
| CC1=C(C#N)C(c2ccc3[nH]nc(C)c3c2)C(C#N)=C(C)N1 [BAY-474] | 148.587% | 192.268% | 98.9453% | 96.2381% | 198.7% | 101.908% | 71.8172% | 85.997% | 81.7867% | 102.241% | 98.8764% | 79.7467% |
| Cc1sc2c(c1C)C(c1ccc(Cl)cc1)=N[C@@H](CC(=O)NCCCCCCCCNC(=O)COc1cccc3c1C(=O)N(C1CCC(=O)NC1=O)C3=O)c1nnc(C)n1-2 (stereo partly specified) | 5.4511% | 19.3995% | 5.5885% | 11.9931% | 2.938% | 15.8723% | 4.49% | 21.4216% | 2.002% | 74.9854% | 1.636% | 22.3036% |
| COc1cc2ncn(-c3cc(OCc4ccccc4C(F)(F)F)c(C(N)=O)s3)c2cc1OC [GW843682X] | 4.781% | 182.458% | 3.81% | 121.646% | 8.715% | 209.484% | 23.2418% | 105.344% | 89.2195% | 152.214% | 57.1216% | 108.759% |
| CC(=O)Nc1cccc(-n2c(=O)n(C3CC3)c(=O)c3c(Nc4ccc(I)cc4F)n(C)c(=O)c(C)c32)c1 [TRAMETINIB] | 4.434% | 57.2708% | 3.321% | 25.6485% | 1.363% | 9.093% | 1.0764% | 6.441% | 2.051% | 46.1337% | 3.859% | 28.7914% |
